{"source": "paper PMC12406192", "about": "“Sustainable Joullié–Ugi and Continuous Flow Implementation Led to Novel Captopril-Inspired Broad-Spectrum Metallo-β-Lactamase Inhibitors” (Journal of Medicinal Chemistry, 2025)", "key": {"NDM-1 [1]": {"molecular_target": "T1, NDM-1 (Klebsiella pneumoniae, UniProt C7C422)", "T1 construct": "made in house; host or cells: E. coli", "T1 sequence (C7C422 29-270 limits assumed)": "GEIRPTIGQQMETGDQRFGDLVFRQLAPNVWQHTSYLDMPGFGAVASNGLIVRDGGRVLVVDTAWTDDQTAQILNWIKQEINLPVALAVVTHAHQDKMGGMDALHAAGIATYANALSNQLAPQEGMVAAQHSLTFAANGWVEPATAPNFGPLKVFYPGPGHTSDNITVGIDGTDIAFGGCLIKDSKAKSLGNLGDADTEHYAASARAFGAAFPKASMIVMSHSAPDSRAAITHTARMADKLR", "assay": "Kinetic fluorescence-based in vitro assay with fluorocillin substrate (IC50)", "assay_type": "biochemical", "conditions": "30 min preincubation", "procedure": "(§1) IC50 values were determined in a kinetic fluorescence-based in vitro assay as described previously. All compounds were preincubated with the recombinant protein for 30 min before addition of the fluorogenic substrate fluorocillin. , The inhibitory activity was also determined (expressed as the percentage of inhibition in the presence of 50 μM compound) using a spectrophotometric assay in which the hydrolysis of imipenem (the reporter substrate) was monitored (see Section for details).\n(§2) The inhibitory activity of the compounds was determined using enzyme assays with recombinant NDM-1, VIM-1, VIM-2, IMP-1, and IMP-7. These enzymes were produced in E. coli and purified as previously described. , The fluorogenic substrate fluorocillin was synthesized according to the procedure described by Rukavishnikov et al. The assays were performed in 96-well format using black polystyrene plates (Corning, Corning, NY) at room temperature, and the measurements were carried out on the Tecan spectrophotometer Infinite F200 PRO (Tecan, Männedorf, Switzerland). The protein stock solutions were diluted in assay buffer (HEPES 50 mM, pH 7.5 containing 0.01%Triton X-100, buffer HX) to reach final concentrations of VIM-1–4 nM, IMP-7–0.1 nM; NDM-1–3 nM. Subsequently, 89 μL of the protein solution was mixed with 1 μL of the inhibitor diluted in DMSO (final DMSO concentration 1% at final assay volume of 100 μL) and incubated for 30 min. […] Negative controls were measured in the absence of enzyme (89 μL of assay buffer), whereas the positive controls were measured in the presence of enzyme and in the absence of inhibitors (1 μL of DMSO). Each measurement was performed in triplicate in three independent experiments. IC50 values were calculated using data obtained from measurements with at least eight different inhibitor concentrations, applying a sigmoidal dose–response (variable slope with four parameters) equation using GraphPad Prism 5 (GraphPad Software, La Jolla, CA) software. […] All assays were performed in at least in triplicate."}, "[2]": {"assay": "Chemical stability of the compounds", "assay_type": "physicochemical"}, "[3]": {"test_system": "K. pneumoniae T2301 (bla NDM‑1 +)", "assay": "Imipenem MIC, broth microdilution, with fixed concentration of compound", "assay_type": "cell-based", "conditions": "compound at 128 μg/mL; median of three experiments", "procedure": "(§3) In vitro antimicrobial susceptibility testing was performed according to established standards. […]. The strains used in the study were described elsewhere."}, "IMP-7": {"molecular_target": "IMP-7 (Pseudomonas aeruginosa, UniProt Q93AU3)", "sequence (Q93AU3 entry or part of it)": "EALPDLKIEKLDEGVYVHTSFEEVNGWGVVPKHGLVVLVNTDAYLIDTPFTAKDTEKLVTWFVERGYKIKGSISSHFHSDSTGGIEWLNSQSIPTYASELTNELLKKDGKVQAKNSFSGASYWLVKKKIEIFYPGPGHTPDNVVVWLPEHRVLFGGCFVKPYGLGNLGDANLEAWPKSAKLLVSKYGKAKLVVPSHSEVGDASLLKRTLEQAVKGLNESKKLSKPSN", "assay": "Kinetic fluorescence-based in vitro assay with fluorocillin substrate (IC50)", "assay_type": "biochemical", "conditions": "30 min preincubation", "procedure": "as §1, §2"}, "VIM-1": {"molecular_target": "T2, VIM-1 (Pseudomonas aeruginosa, UniProt A0A0F7KYQ8)", "T2 construct": "made in house; host or cells: E. coli", "assay": "Kinetic fluorescence-based in vitro assay with fluorocillin substrate (IC50)", "assay_type": "biochemical", "procedure": "as §1, §2"}, "[4]": {"test_system": "K. pneumoniae T2216 (bla VIM‑1 +)", "assay": "Imipenem MIC, broth microdilution, with fixed concentration of compound", "assay_type": "cell-based", "conditions": "compound at 128 μg/mL; median of three experiments", "procedure": "(§4) In vitro antimicrobial susceptibility testing was performed according to established standards. […] The strains used in the study were described elsewhere."}, "[5]": {"test_system": "P. aeruginosa T2325 (bla IMP‑1 +)", "assay": "Imipenem MIC, broth microdilution, with fixed concentration of compound", "assay_type": "cell-based", "conditions": "compound at 128 μg/mL; median of three experiments", "procedure": "as §4"}, "[6]": {"test_system": "E. coli SI-G001 (bla NDM‑4 +)", "assay_type": "cell-based", "conditions": "compound at 32 μg/mL; median of three experiments", "procedure": "as §4"}, "[7]": {"test_system": "E. coli SI–N003 (bla NDM‑7 +)", "assay_type": "cell-based", "conditions": "compound at 32 μg/mL; median of three experiments", "procedure": "as §4"}, "[8]": {"test_system": "E. coli SI-M001 (bla NDM‑1 +)", "assay": "Imipenem MIC, broth microdilution, with fixed concentration of compound", "assay_type": "cell-based", "conditions": "compound at 32 μg/mL; median of three experiments", "procedure": "as §3"}, "VIM-2 [9]": {"molecular_target": "T3, VIM-2 (Escherichia coli, UniProt Q5U7L7)", "T3 construct": "made in house; host or cells: E. coli", "assay": "biochemical", "conditions": "competitive model, imipenem reporter substrate; read-out: K i VIM-2"}, "IMP-1": {"molecular_target": "T4, IMP-1 (Serratia marcescens, UniProt P52699)", "T4 construct": "made in house; host or cells: E. coli", "T4 sequence (P52699 19-246, looked up, species assumed)": "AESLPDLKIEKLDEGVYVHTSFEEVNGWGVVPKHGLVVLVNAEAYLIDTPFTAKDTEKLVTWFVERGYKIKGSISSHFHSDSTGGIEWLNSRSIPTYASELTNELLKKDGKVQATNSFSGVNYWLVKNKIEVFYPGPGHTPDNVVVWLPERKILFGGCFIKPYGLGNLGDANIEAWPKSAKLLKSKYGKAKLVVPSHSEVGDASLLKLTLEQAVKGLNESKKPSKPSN", "assay": "biochemical", "procedure": "as §1, §2"}, "VIM-2 [10]": {"molecular_target": "T3, VIM-2", "assay": "biochemical", "conditions": "read-out: percentage of inhibition VIM-2", "procedure": "as §1, §2"}, "[11]": {"molecular_target": "T5, human angiotensin-converting enzyme 1 (ACE-1) (Homo sapiens, UniProt P12821)", "T5 construct": "purchased Sigma-Aldrich CS0002", "T5 sequence (P12821 30-1306)": "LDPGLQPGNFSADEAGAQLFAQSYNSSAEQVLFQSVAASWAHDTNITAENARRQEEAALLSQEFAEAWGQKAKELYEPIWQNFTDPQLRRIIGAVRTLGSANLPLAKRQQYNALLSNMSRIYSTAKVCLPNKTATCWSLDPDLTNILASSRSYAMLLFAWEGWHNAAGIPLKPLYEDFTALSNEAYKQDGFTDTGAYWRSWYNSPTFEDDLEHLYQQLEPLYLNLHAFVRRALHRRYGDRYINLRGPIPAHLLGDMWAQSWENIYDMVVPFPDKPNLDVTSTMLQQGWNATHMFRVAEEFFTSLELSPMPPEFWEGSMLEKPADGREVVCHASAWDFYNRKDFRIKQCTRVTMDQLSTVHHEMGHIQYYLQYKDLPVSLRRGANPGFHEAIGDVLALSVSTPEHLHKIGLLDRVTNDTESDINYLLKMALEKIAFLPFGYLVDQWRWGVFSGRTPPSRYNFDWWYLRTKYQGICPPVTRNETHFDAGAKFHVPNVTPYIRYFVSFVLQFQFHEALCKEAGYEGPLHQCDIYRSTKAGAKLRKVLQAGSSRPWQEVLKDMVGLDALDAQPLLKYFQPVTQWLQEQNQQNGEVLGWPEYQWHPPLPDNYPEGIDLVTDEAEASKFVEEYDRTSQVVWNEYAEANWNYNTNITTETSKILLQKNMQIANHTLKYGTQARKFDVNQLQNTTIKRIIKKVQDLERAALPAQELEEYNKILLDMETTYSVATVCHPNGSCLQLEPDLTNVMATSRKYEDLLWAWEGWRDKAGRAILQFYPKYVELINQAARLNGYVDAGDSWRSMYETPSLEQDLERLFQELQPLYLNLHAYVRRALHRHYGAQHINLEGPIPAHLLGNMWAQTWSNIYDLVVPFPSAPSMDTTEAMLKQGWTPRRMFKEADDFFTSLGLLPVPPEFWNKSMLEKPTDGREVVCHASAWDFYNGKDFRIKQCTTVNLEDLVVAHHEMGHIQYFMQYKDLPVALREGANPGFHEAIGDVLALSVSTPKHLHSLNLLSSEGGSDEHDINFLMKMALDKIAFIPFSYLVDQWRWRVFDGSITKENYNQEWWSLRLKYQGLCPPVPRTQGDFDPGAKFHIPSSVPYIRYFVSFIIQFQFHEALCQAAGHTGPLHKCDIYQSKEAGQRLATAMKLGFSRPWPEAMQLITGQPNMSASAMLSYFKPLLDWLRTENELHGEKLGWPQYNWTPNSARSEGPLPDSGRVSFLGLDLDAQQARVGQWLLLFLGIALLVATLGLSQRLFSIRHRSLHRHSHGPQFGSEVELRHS", "assay": "ACE Activity Assay Kit, fluorogenic substrate", "assay_type": "biochemical", "conditions": "50 μM inhibitor", "procedure": "To assess the selectivity of the compounds, their inhibitory activity on human angiotensin-converting enzyme 1 (ACE-1) was performed using the ACE Activity Assay Kit (Sigma-Aldrich cat. No. CS0002). […] Captopril (racemic mixture, D- and L-stereoisomers) was used as control in these experiments."}, "[12]": {"test_system": "K. pneumoniae 7023 (bla VIM‑1 +)", "assay": "Imipenem MIC, broth microdilution, with fixed concentration of compound", "assay_type": "cell-based", "conditions": "compound at 32 μg/mL; median of three experiments", "procedure": "as §4"}, "[13]": {"test_system": "K. pneumoniae VA-416/02 (bla VIM‑4 +)", "assay": "Imipenem MIC, broth microdilution, with fixed concentration of compound", "assay_type": "cell-based", "conditions": "compound at 32 μg/mL; median of three experiments", "procedure": "as §4"}, "[14]": {"test_system": "A. baumannii AC-54/97 (bla IMP‑2 +)", "assay": "Imipenem MIC, broth microdilution, with fixed concentration of compound", "assay_type": "cell-based", "conditions": "compound at 32 μg/mL; median of three experiments", "procedure": "as §4"}, "[15]": {"test_system": "S. marcescens SI-1591 (bla VIM‑2 +)", "assay": "microbe, parasite or virus in culture", "assay_type": "cell-based", "conditions": "compound at 32 μg/mL; median of three experiments", "procedure": "as §4"}, "NDM-1 [16]": {"molecular_target": "T1, NDM-1", "assay": "Spectrophotometric direct competition assay, imipenem hydrolysis (reporter substrate)", "assay_type": "biochemical", "procedure": "as §1, §2"}}, "note": "Marks after values point to notes of the source that are not given here.", "data": [{"molecule": "C[C@H](CS)C(=O)N1c2ccccc2C(C)(C)[C@H]1C(N)=O", "note": "[6a, (S)-1-((S)-3-Mercapto-2-methylpropanoyl)-3,3-dimethylindoline-2-carboxamide]", "values": [{"measurement": "IC50", "setting": "NDM-1 [1]", "value": 17.9, "unit": "µM"}, {"measurement": "chemical stability (in words)", "setting": "[2]", "value": "not very stable"}]}, {"molecule": "C[C@H](CS)C(=O)N1c2ccccc2C(C)(C)[C@@H]1C(N)=O", "note": "[6b, (R)-1-((S)-3-Mercapto-2-methylpropanoyl)-3,3-dimethylindoline-2-carboxamide]", "values": [{"measurement": "imipenem MIC, K. pneumoniae T2301 (bla NDM‑1 +)", "setting": "[3]", "value": "16 ^c μg/mL"}, {"measurement": "IC50", "setting": "NDM-1 [1]", "value": 4.1, "unit": "µM"}, {"measurement": "IC50", "setting": "IMP-7", "value": 1.8, "unit": "µM"}, {"measurement": "IC50", "setting": "VIM-1", "value": 0.7, "unit": "µM"}, {"measurement": "imipenem MIC, K. pneumoniae T2216 (bla VIM‑1 +)", "setting": "[4]", "value": "4 ^c μg/mL"}, {"measurement": "imipenem MIC, P. aeruginosa T2325 (bla IMP‑1 +)", "setting": "[5]", "value": "64 ^c μg/mL"}, {"measurement": "chemical stability (in words)", "setting": "[2]", "value": "lower chemical stability"}]}, {"molecule": "CCC1(CC)c2ccccc2N(C(=O)[C@H](C)CS)[C@@H]1C(N)=O", "note": "[6c, (S)-3,3-Diethyl-1-((S)-3-mercapto-2-methylpropanoyl)indoline-2-carboxamide]", "values": [{"measurement": "imipenem MIC, E. coli SI-G001 (bla NDM‑4 +)", "setting": "[6]", "value": 64, "unit": "µg/mL"}, {"measurement": "imipenem MIC, E. coli SI–N003 (bla NDM‑7 +)", "setting": "[7]", "value": 64, "unit": "µg/mL"}, {"measurement": "imipenem MIC, E. coli SI-M001 (bla NDM‑1 +)", "setting": "[8]", "value": 64, "unit": "µg/mL"}, {"measurement": "Ki", "setting": "VIM-2 [9]", "value": "0.16 ± 0.01", "unit": "µM"}, {"measurement": "IC50", "setting": "NDM-1 [1]", "value": 8.4, "unit": "µM"}, {"measurement": "Ki", "setting": "IMP-1; competitive model, imipenem reporter substrate, read-out: K i IMP-1", "value": "4.9 ± 0.3", "unit": "µM"}, {"measurement": "inhibition at 50 µM", "setting": "IMP-1; read-out: percentage of inhibition IMP-1", "value": 66, "unit": "%"}, {"measurement": "inhibition at 50 µM", "setting": "VIM-2 [10]", "value": 96, "unit": "%"}, {"measurement": "inhibition at 50 µM", "setting": "[11]", "value": "< 5", "unit": "%"}, {"measurement": "imipenem MIC, K. pneumoniae 7023 (bla VIM‑1 +)", "setting": "[12]", "value": 128, "unit": "µg/mL"}, {"measurement": "imipenem MIC, K. pneumoniae VA-416/02 (bla VIM‑4 +)", "setting": "[13]", "value": 128, "unit": "µg/mL"}, {"measurement": "imipenem MIC, A. baumannii AC-54/97 (bla IMP‑2 +)", "setting": "[14]", "value": 128, "unit": "µg/mL"}, {"measurement": "imipenem MIC, S. marcescens SI-1591 (bla VIM‑2 +)", "setting": "[15]", "value": 8, "unit": "µg/mL"}, {"measurement": "Ki", "setting": "NDM-1 [16]; competitive model, imipenem reporter substrate, read-out: K i NDM-1", "value": "4.5 ± 0.7", "unit": "µM"}, {"measurement": "inhibition at 50 µM", "setting": "NDM-1 [16]; read-out: percentage of inhibition NDM-1", "value": 81, "unit": "%"}]}]}
